ChEMBL document CHEMBL1201862, “PubChem BioAssay data set” (2004)
Active and inactive are the calls of the source.

How the values were obtained:
[1] = target: T1, Heat shock factor protein 1 (Mus musculus, UniProt P38532); assay: enhancement of HSF1-driven luciferase signal – cell-based, NIH3T3, luminescence, dose retest, confirmation (AID 435004); assay type: functional;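 note: stress induced by proteasome inhibitor MG132 added 30 min after compound; luciferase reporter driven by HSF1 response element in NIH3T3 cells; actives raise luminescence as potentiators of the MG132 stress response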
T1 sequence (P38532 whole entry): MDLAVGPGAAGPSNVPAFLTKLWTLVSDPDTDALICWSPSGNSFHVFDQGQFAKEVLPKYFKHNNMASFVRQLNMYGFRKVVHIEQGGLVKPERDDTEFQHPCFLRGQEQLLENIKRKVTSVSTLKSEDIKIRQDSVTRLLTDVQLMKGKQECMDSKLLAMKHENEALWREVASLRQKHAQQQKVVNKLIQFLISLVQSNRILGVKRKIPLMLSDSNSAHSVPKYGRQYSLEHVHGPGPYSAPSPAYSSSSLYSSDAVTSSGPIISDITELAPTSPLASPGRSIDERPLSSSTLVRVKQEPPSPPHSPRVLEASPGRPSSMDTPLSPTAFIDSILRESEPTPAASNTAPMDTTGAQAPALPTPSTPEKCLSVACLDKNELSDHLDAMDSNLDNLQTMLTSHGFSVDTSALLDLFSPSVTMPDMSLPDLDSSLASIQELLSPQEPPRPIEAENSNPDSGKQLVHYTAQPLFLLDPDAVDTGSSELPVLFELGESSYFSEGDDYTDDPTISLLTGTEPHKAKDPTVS

[2] = target: T2, Cytochrome P450 1A2 (Homo sapiens, UniProt P05177);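 note: PubChem cytochrome P450 panel assay, CYP1A2 panel member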
T2 sequence (P05177 whole entry): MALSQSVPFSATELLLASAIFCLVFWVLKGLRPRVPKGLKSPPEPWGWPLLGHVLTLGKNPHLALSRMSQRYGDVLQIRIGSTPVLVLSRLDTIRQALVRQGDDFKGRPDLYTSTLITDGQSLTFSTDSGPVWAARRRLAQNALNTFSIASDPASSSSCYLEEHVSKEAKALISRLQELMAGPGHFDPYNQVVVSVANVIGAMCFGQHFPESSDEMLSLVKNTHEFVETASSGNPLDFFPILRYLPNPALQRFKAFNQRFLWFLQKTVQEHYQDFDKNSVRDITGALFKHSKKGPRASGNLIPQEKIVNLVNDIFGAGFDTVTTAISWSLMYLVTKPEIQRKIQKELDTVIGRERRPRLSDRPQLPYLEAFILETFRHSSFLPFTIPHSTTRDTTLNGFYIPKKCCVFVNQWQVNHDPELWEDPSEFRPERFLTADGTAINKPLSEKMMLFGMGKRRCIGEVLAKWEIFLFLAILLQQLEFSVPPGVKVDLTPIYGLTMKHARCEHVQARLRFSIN

[3] = cells; assay type: functional
[4] = target: Cytochrome P450 2D6 (Homo sapiens, UniProt P10635)
Chain of Cytochrome P450 2D6 (P10635 whole entry): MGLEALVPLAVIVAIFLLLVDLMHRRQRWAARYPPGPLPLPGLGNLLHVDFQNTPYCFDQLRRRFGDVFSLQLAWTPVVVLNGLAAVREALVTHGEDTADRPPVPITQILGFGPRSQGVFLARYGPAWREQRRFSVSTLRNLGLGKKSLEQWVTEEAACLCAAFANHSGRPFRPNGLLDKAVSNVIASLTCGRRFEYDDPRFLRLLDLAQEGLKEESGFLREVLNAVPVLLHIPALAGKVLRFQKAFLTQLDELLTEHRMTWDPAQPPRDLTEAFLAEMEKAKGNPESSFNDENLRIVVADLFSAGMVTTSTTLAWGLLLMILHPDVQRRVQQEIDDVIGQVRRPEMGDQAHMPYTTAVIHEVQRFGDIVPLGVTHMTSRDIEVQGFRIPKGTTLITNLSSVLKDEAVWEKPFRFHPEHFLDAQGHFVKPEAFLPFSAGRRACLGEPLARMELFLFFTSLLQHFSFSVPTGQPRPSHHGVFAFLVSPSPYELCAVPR

[5] = target: Cytochrome P450 2C9 (Homo sapiens, UniProt P11712)
Chain of Cytochrome P450 2C9 (P11712 whole entry): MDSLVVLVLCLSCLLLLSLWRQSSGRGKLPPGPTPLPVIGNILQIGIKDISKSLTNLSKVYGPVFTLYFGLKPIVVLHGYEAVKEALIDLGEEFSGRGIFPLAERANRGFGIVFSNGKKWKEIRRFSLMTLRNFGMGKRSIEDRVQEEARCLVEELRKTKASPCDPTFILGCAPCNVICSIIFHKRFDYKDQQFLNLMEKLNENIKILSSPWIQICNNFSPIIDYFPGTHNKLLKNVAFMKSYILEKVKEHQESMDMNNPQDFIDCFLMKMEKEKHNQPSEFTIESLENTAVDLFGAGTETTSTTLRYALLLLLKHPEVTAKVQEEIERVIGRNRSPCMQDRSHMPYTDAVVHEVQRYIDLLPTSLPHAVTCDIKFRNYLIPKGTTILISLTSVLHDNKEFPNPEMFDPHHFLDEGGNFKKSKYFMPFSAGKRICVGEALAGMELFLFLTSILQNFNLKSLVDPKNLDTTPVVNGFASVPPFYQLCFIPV

[6] = target: Cytochrome P450 2C19 (Homo sapiens, UniProt P33261); assay: Cytochrome panel assay with activity outcomes. Panel member name: p450-cyp2c19 Compounds with AC50 equal or less than 10 uM are considered active; assay type: functional
Chain of Cytochrome P450 2C19 (P33261 whole entry): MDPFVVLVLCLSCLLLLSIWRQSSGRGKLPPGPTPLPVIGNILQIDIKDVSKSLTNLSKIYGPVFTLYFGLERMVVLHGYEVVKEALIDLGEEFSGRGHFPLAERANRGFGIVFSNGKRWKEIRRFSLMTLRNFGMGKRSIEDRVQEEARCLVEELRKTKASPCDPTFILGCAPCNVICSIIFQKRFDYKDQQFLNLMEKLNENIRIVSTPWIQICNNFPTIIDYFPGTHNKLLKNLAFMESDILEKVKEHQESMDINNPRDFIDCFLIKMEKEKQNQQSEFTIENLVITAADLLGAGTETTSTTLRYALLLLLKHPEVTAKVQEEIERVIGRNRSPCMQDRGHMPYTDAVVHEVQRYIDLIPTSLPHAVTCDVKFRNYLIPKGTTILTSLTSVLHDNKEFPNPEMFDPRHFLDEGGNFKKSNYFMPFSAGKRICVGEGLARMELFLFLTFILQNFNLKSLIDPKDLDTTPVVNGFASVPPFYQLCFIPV

[7] = target: T3, Protein skinhead-1 (Caenorhabditis elegans, UniProt P34707); assay type: functional
T3 sequence (P34707 whole entry): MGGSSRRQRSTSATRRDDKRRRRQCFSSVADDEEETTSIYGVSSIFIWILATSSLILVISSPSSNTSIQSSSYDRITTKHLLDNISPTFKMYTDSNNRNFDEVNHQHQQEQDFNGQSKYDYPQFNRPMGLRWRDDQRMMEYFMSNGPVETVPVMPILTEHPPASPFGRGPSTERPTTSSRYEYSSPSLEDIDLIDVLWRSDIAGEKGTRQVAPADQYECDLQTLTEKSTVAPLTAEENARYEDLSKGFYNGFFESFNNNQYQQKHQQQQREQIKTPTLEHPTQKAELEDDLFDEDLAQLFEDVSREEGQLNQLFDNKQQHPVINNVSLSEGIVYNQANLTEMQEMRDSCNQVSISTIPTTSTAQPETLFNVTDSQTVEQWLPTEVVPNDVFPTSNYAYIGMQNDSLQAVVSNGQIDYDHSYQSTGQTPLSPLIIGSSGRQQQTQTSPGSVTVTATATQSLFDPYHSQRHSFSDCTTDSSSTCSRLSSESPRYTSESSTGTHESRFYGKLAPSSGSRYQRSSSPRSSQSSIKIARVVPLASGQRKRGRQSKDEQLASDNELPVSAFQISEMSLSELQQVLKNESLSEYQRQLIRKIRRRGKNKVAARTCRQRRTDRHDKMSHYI

[8] = test system: H9c2; assay: cells; assay type: functional, cell-based; conditions: Rattus norvegicus, H9c2, Myocardium;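 note: confirmatory concentration-response retest of ultra-high-throughput screening hits for modulation of myocardial damage; cell death induced by hydrogen peroxide oxidative stress; compound pretreatment for 60 min then peroxide exposure for 2 h; potency is for protecting the cells against peroxide damage rather than for killing them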
[9] = target: Cytochrome P450 3A4 (Homo sapiens, UniProt P08684);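 note: CYP3A4 tested as one member of a cytochrome P450 panel screen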
Chain of Cytochrome P450 3A4 (P08684 whole entry): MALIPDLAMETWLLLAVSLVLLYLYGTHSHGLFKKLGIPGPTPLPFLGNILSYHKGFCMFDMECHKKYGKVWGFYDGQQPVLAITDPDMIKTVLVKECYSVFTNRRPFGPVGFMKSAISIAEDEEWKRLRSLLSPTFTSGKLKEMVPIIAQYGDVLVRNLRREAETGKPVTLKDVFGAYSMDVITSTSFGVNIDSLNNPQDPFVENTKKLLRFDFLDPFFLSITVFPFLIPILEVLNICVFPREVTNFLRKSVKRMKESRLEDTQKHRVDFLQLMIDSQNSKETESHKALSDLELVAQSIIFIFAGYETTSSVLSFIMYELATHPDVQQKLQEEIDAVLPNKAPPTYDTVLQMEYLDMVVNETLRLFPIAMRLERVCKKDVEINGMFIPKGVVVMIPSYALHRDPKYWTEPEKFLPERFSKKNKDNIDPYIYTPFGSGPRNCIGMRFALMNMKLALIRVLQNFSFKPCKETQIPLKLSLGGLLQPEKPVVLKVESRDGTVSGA

[10] = target: T4, Corticotropin-releasing factor receptor 2/Corticotropin-releasing factor-binding protein (Homo sapiens, UniProt P24387+Q13324); assay: activators of CRF receptor 2 with binding protein – uHTS hits, confirmation (AID 602473); assay type: functional; conditions: read-out: EC50_Mean
T4 sequence (Q13324 whole entry): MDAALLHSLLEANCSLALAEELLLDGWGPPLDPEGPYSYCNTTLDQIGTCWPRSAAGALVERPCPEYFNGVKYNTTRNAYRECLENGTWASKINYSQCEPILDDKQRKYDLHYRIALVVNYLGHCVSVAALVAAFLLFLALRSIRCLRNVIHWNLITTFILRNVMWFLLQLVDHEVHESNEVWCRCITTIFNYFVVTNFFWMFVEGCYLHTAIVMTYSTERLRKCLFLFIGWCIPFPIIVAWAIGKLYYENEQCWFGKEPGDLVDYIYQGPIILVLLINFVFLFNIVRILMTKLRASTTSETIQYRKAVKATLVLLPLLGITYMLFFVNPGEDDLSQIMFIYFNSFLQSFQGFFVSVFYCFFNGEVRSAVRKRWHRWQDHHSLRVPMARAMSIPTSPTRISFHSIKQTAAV
T4 sequence (P24387 whole entry): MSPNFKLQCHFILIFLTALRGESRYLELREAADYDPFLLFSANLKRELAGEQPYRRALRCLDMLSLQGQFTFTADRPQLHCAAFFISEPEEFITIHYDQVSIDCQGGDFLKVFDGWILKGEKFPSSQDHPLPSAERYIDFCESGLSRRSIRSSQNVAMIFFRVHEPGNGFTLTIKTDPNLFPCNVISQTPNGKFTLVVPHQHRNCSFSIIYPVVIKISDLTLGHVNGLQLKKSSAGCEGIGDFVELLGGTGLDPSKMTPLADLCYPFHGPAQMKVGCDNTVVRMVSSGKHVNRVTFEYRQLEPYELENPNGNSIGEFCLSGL

[11] = target: T4, Corticotropin-releasing factor receptor 2/Corticotropin-releasing factor-binding protein; assay: Dose Response confirmation of uHTS hits for small molecule antagonists of the CRF-binding protein and CRF-R2 receptor complex.; assay type: functional; conditions: read-out: IC50_Mean
[12] = Luminescence Cell-Based Dose Retest to Confirm Inhibitors of Cancer Stem Cells. [Related pubchem assays (depositor defined):AID2717, AID2721]; assay type: functional; conditions: Homo sapiens

## CCC(C)NC(=O)CC(NS(=O)(=O)c1ccc(Cl)cc1)c1ccco1 (centres undefined)
[1]
  EC50: > 260 µM (inactive)

## COC(=O)c1cc(/C=C/c2ccccc2)on1
[2]
  AC50: 2 µM (inconclusive)
[3]
  IC50: 5.44 µM (active)

## O=C(Nc1ccc(Cl)cc1)OCc1cc(-c2ccccc2)on1
[4]
  AC50: 3.98 µM (inconclusive)
[5]
  AC50: 2.82 µM (inconclusive)

## CCN1C(=O)C2(SC(NC(C)=O)=NN2C(C)=O)c2cc(C)ccc21 (centres undefined)
[6]; read-out: AC50
  AC50: 14.1 µM (inconclusive)
[5]
  AC50: 31.6 µM (inconclusive)

## O=c1c(-c2ccccc2)nc2cnc(N3CCOCC3)nc2n1Cc1ccc(F)cc1
[2]
  AC50: 20 µM (inconclusive)
[5]
  AC50: 15.8 µM (inconclusive)

## Cc1ccc(C(=O)OCC(=O)N2CCCCCC2)c(O)c1
[3]
  IC50: 11.1 µM (active)

## CCOc1ccc(S(=O)(=O)NCCSc2ccccc2)cc1
[1]
  EC50: > 260 µM (inactive)

## CCOC(=O)CN1NC2(CCCC(C)C2)N=C1S (centres undefined)
[3]
  IC50: 48.9 µM (active)

## Clc1ccc(Nc2ncnc3c2cnn3-c2ccccc2)cc1
[7]
  IC50: > 100 µM (inactive)

## CCOC(=O)C1CCN(C(=O)COc2cc(C)c(Br)c(C)c2)CC1
[3]
  IC50: 30.2 µM (active)

## Cc1cccc(C)c1NCc1nnc(SCC(=O)Nc2nc(-c3ccccc3)cs2)n1-c1ccccc1
[1]
  EC50: > 260 µM (inactive)

## O=[N+]([O-])c1ccc(Cc2nnc(O)c3ccccc23)cc1
[7]
  IC50: > 100 µM (inactive)
[8]
  IC50: > 79 µM (inactive)

## Cc1ccc(C(=O)N(C)CC(=O)Nc2ccc(N3CCOCC3)cc2)s1
[7]
  IC50: > 100 µM (inactive)

## COc1cc(/C=C/c2ccc3c([N+](=O)[O-])cccc3n2)ccc1OCC(=O)O
[3]
  IC50: 2.39 µM (active)

## CC(=O)Oc1ccc(/C=C2\N=C(C3CCCCC3)OC2=O)cc1
[3]
  IC50: 33.9 µM (active)

## Cc1ccc(N2Cc3ccccc3OC(C)C2=O)cc1 (centres undefined)
[1]
  EC50: > 260 µM (inactive)

## CC(C)[C@@H]1O[C@H](/C=C\c2ccccc2)OCC1(C)C
[9]
  AC50: 5.01 µM (inconclusive)
[6]; read-out: AC50
  AC50: 5.01 µM (inconclusive)
[5]
  AC50: 3.16 µM (inconclusive)

## Cc1ccc(/C=C2\OC(=O)c3ccccc32)cc1
[5]
  AC50: 0.355 µM (inconclusive)

## COc1ccc([N+](=O)[O-])cc1NCc1ccccc1C
[4]
  AC50: 17.8 µM (inconclusive)
[5]
  AC50: 17.8 µM (inconclusive)

## O=C(CCN1CCCCC1=O)NC1CCCN(Cc2ccc(Cl)cc2)C1 (centres undefined)
[10]
  EC50: > 53 µM (inactive)
[11]
  IC50: > 47.1 µM (inactive)

## CC(=O)CSc1nc2ccccc2s1
[7]
  IC50: > 100 µM (inactive)

## O=c1c(CCc2ccccc2)nc2cnc(N3CCOCC3)nc2n1CCc1ccccc1
[2]
  AC50: 25.1 µM (inconclusive)
[5]
  AC50: 2 µM (inconclusive)

## CN(C)/C=C/C(=O)c1cccc(Oc2ncccn2)c1
[1]
  EC50: > 260 µM (inactive)

## CC(C)(CN)CC(=O)O
[1]
  EC50: > 260 µM (inactive)

## COC(=O)C(C)Sc1nc2c(c(=O)n(C)c(=O)n2C)n1CCC(C)C (centres undefined)
[1]
  EC50: > 260 µM (inactive)

## O=[N+]([O-])c1cccc2ccc(/C=C/c3ccc(F)cc3)nc12
[7]
  IC50: > 100 µM (inactive)

## O=C1CC(N(Cc2ccc3c(c2)OCO3)C(=O)Nc2ccc(F)cc2)C(=O)N1c1ccccc1 (centres undefined)
[1]
  EC50: > 260 µM (inactive)

## CC(/C=C/c1cccs1)=C\C(=O)O
[1]
  EC50: > 260 µM (inactive)

## CCc1ccc(-n2c(SCC(=O)Nc3cc(C)[nH]n3)nc3nncc-3c2O)cc1
[7]
  IC50: > 100 µM (inactive)

## CCOC(=O)C1=C(C)N=C(C)/C(=C(\O)OCC)C1c1sccc1C (centres undefined)
[5]
  AC50: 0.891 µM (inconclusive)

## O=C(O)c1ccc2c(c1)CCCN2
[7]
  IC50: > 100 µM (inactive)

## Cc1noc(C(F)(F)F)c1C(=O)NNC(=O)c1cccc(C(F)(F)F)c1
[10]
  EC50: > 53 µM (inactive)
[11]
  IC50: > 47.1 µM (inactive)

## COc1ccccc1C(OC(=O)c1cccs1)C(=O)NCC1CCCO1 (centres undefined)
[2]
  AC50: 14.1 µM (inconclusive)
[9]
  AC50: 25.1 µM (inconclusive)
[6]; read-out: AC50
  AC50: 5.01 µM (inconclusive)
[5]
  AC50: 14.1 µM (inconclusive)

## Cc1ccc(-n2nc3c(c2NC(=O)c2ccc(OC(C)C)cc2)C[S+]([O-])C3)cc1 (centres undefined)
[10]
  EC50: > 53 µM (inactive)
[11]
  IC50: > 47.1 µM (inactive)

## NC(=O)c1ccc([N+](=O)[O-])cc1SCc1ccccc1
[9]
  AC50: 12.6 µM (inconclusive)
[5]
  AC50: 28.2 µM (inconclusive)

## COc1ccc(OC)c(-n2c(=O)c3ccccc3c3ccccc3c2=O)c1
[1]
  EC50: 30.2 µM (active)

## CCCCc1cc(=O)oc2cc(OCC(=O)N(CC)CC)ccc12
[6]; read-out: AC50
  AC50: 31.6 µM (inconclusive)
[5]
  AC50: 25.1 µM (inconclusive)

## O=C1Nc2ccccc2C(O)(C(=O)NCc2ccco2)N1c1ccc(Cl)c(Cl)c1 (centres undefined)
[7]
  IC50: > 100 µM (inactive)

## Cc1ccc(C(=O)NC(=S)Nc2cccc3nsnc23)cc1
[6]
  AC50: inconclusive
[5]
  AC50: 35.5 µM (inconclusive)

## Nc1cc2c(cc1Cl)-c1ccccc1C2
[7]
  IC50: 52.5 µM (inactive)

## CC(C)N(C(=O)C[n+]1ccsc1N)c1ccccc1
[10]
  EC50: > 53 µM (inactive)
[11]
  IC50: > 47.1 µM (inactive)

## COc1ccccc1C(=O)NCCC(=O)N1CCN(c2ccccc2O)CC1
[10]
  EC50: > 53 µM (inactive)
[11]
  IC50: > 47.1 µM (inactive)

## Cc1cccn2c(/C=N/OCc3cccc(F)c3)c(-c3ccc(Cl)cc3)nc12
[9]
  AC50: 14.1 µM (inconclusive)
[10]
  EC50: > 53 µM (inactive)
[11]
  IC50: > 47.1 µM (inactive)
[12]
  AC50: 4.13 µM (active)

## O=[N+]([O-])c1ccc(/C=N/NS(=O)(=O)c2ccc(Cl)cc2)o1
[3]
  IC50: 6.23 µM (active)

## O=C1c2ccccc2C(Cc2ccncc2)(Cc2ccncc2)c2ccccc21
[2]
  AC50: 39.8 µM (inconclusive)
[5]
  AC50: 20 µM (inconclusive)
